According to patent US7655392B2, “Quenching methods for red blood cell inactivation process” (priority 2004, dated 2010):
Where two headings read alike, the source gives them in different places.

Experiments:
[1] = pH of quencher stock and of RBC mixture; assay type: physicochemical; conditions: for pH of stock quencher: room temperature
Description: The effect of various quenching conditions on the pH of a red blood cell composition was determined for various treatment conditions. The quencher solutions were prepared at a concentration of 600 mM in 8% dextrose monohydrate. […] Glutathione was assessed at 2 mM (acidic) or 20 mM (2 eq. of base). […] The pH of the quencher solution, either unmodified or neutralized, was measured using a standard Epoxy Calomel electrode (Beckman Instruments) at room temperature. […] The samples were mixed and the pH at room temperature was measured using the same electrode as described above.
In these, the appropriate amount of 600 mM stock was added, mixed with an appropriate volume of 8% dextrose to provide the same volume addition to each RBC sample where in one study, with varied glutathione concentrations, the pH was measured after adding glutathione and after adding PIC-1. […] Similar samples were also assessed for the inactivation of S. epidermidis. […] For gel card analysis, after incubation, the RBC were washed in BBS and were diluted in BBS to a final hematocrit of 4%. A 25 μL aliquot of each was mixed with 15 μL of rabbit polyclonal anti-acridine sera diluted either 1:4 or 1:100 in BBS and the mixture was incubated at 37° C. for 30 minutes. The cells were subsequently washed with 1.5 mL BBS. After washing was complete, the cells were mixed with goat anti-rabbit Fab′2 fragment anti H+L chains (1:4 dilution in PBS) and incubated at 37° C. for 30 minutes.

Serratia marcescens = assay type: cell-based; conditions: Table 5B: 20 mM Cys+2 eq base only, no PIC-1
[2] = tested on: Staphylococcus epidermidis; assay: Inactivation of Staphylococcus epidermidis in RBC (colony count); conditions: Table 5C: 20 mM cysteine+1 eq base only, no PIC-1
Description: Whole blood (Blood Source, Sacramento, Calif.) was used to prepare a red blood cell (RBC) composition by centrifuging to provide packed RBC (34 mL of approximately 90% hematocrit), then adding 17 mL Erythrosol to a hematocrit of approximately 60%. Erythrosol is a red blood cell additive (Baxter Healthcare Corp., Deerfield, Ill.) that may be prepared by combining sodium citrate dihydrate (7.82 g); sodium acid phosphate dihydrate (0.73 g); sodium phosphate dihydrate (3.03 g); adenine (0.22 g); mannitol (7.74 g); and glucose (9 g) in 1 liter of distilled water. The bacterial preparation was then added ( 1/100th of the total volume) to the RBC/Erythrosol to provide contaminated RBC. The contaminated RBC was divided into several samples and treated according to Table 2, where PIC-1 is β-alanine, N-(acridin-9-yl), 2-[bis(2-chloroethyl)amino]ethyl ester. The PIC-1 and glutathione (Aldrich, St. Louis, Mo.) were dissolved in a solution of 8% dextrose monohydrate at about 15× the desired concentration in the final red blood cell composition when added together, or 30× when added separately. […] For separate addition using 20 mM neutralized glutathione, PIC-1 is prepared by dissolving 7.6 mg in 2.5 mL of 8% dextrose, glutathione is prepared by dissolving 460 mg in 1.9 mL of 8% dextrose and mixing with 0.6 mL of 5N NaOH, then adding 165 μL of each solution to 4.67 mL RBC in the appropriate order. Following treatment, the samples were incubated for 2 hours, and 100 μL of each was serially diluted and plated on LB plates. These were incubated overnight at 37° C. in order to assess bacterial growth. The bacterial titer was determined by counting colonies on the plates and based on the dilution of the plate, the titer was determined. For example, with 10-fold serial dilutions, 30 colonies counted on the 5th dilution of the original solution, where 0.1 mL are plated, would indicate an initial titer of (30×10^5)/0.1=3×10^7, or 7.47 log. […] Note that for most samples in Table 2A the PIC-1 and glutathione were formulated together. […] The study was repeated with sequential addition of the two components, as indicated in Table 2B (time delay of 0 indicates they were added in the same solution).
Additional studies were done using S. epidermidis, where the overnight culture was used without dilution. […] PIC-1 is at 0.2 mM in all samples.
For these samples, the NaOH stock was prepared at 10N and appropriate volumes of the various components were used following the procedures above. Standard conditions and/or 20 mM neutralized glutathione (GSH) were run for comparison.

red blood cells = assay type: cell-based; conditions: 20 mM Cys+2 eq NaOH only, no PIC-1
Description: In another assay, the rabbit polyclonal sera may be reacted with treated red blood cells. After washing off unbound antibody, a FITC labeled goat anti-rabbit Fab′2 fragment (anti H+L chains, Caltag) is added. The binding of FITC label to the red blood cells correlates with the amount of acridine bound to the red blood cell surface, and is assessed by FACScan™ analysis (Becton, Dickinson and Co., NJ). The relative modification of the red blood cells is determined from the FACScan™ mean fluorescence value.
A 20 mL sample of leukoreduced whole blood (Blood Source, Sacramento, Calif.) was centrifuged at 4,100×g for 5 minutes at room temperature in each of four 50 mL centrifuge tubes. The supernatant was removed from each tube to provide red cell concentrate (RCC). […] For each washed RCC, cells were resuspended in 5 mL of the solution used for washing. This is now referred to as the RBC test sample. […] These samples were incubated for 20 hours at room temperature. After incubation, the RBC were washed in BBS (Blood Bank Saline, 0.9% saline, unbuffered, Fisher Scientific) and were diluted to a final hematocrit of 4%. A 25 μL aliquot of each was mixed with 15 μL of rabbit polyclonal anti-acridine sera diluted 1:100 in BBS and the mixture was incubated at 37° C. for 30 minutes. The cells were subsequently washed with 1.5 mL BBS. After washing was complete, the cells were mixed with 50 μL of FITC labeled goat anti-rabbit Fab′2 fragment (1:64 dilution in BBS) and incubated at 37° C. for 30 minutes. […] Note that the quenching improves as glutathione is neutralized with increasing amounts of sodium hydroxide.
The FACScan analysis of the binding of rabbit anti-acridine sera to treated red cells was used to assess a variety of quenching conditions. […] The tables represent data from two different experiments, each with samples treated under standard conditions or with 20 mM neutralized glutathione. […] The data within an experiment provides the relative efficacy of the various treatments. Because the assay may depend on the lot of red blood cells used, the absolute values of mean fluorescence may vary from one study to the next, such that relative values should only be compared within a given experiment. […] Neutralized glutathione at 20 mM results in close to background levels.
An untreated control sample as well as a standard sample (co-addition of 2 mM acidic glutathione with 0.2 mM PIC-1) were also assessed.
Full units of red cell concentrates (Interstate Blood Bank, Inc., Memphis, Tenn.) were leukoreduced. A volume of 200 mL of this RCC (80% hematocrit) was mixed with 94 mL of Erythrosol or 100 mL of Adsol (Baxter Healthcare Corp., Deerfield, Ill.) as control (unit 1). A volume of 20 mL 8% dextrose was used to dissolve PIC-1 (mg) and acid glutathione (mg) and added to one unit to provide 0.2 mM PIC-1 and 2 mM glutathione (unit 2). […] For the glutathione, 1.2 mL of 10 N NaOH was added (2 equivalents). The PIC-1 was mixed with the unit, followed 1 minute later (unit 3) or 5 minutes later (unit 4) by glutathione. For unit 5, neutralized glutathione was mixed first, followed 10 minutes later by the PIC-1. […] All units were mixed by grasping the ends of the blood bag and mixing in a FIG. 8 motion 30 times. These were then incubated at room temperature for 20 hours total. A compound adsorption device (CAD), comprising a polymeric resin contained within a mesh pouch, was used for all but the control sample. This device is intended to remove residual PIC-1, PIC-1 breakdown products, and glutathione from the samples. Samples were incubated for 8 hours, then transferred to a second blood bag containing the CAD and incubated for an additional 12 hours. Following the room temperature incubation, samples were transferred to a refrigerator (4° C.) and stored up to 43 days.

[3] = 600 mM in 8% dextrose + 1 eq. base
[4] = Table 10: RBC + 20 mM quencher + 1 eq. base + 0.2 mM PIC-1
[5] = Table 10: RBC + 20 mM quencher + 2 eq. base + 0.2 mM PIC-1

Row | Compound | pH of stock quencher [1, 3] | pH of final mixture [1, 4] | pH of final mixture [1, 5] | pH of final mixture ([1]; Table 10: RBC + 20 mM quencher, no base + 0.2 mM PIC-1) | Log S. marcescens reduction (Serratia marcescens) | Log S. marcescens titer (Serratia marcescens) | Log S. epidermidis reduction [2] | Log S. epidermidis titer [2] | mean fluorescence (red blood cells; Table 9A: control) | mean fluorescence (red blood cells; Table 9B: control) | pH of stock quencher ([1]; 600 mM in 8% dextrose + 2 eq. base)
1 | CC(=O)N[C@@H](CS)C(=O)O [N-acetyl cys, N-acetyl cysteine] | 6 | 6.7 | – | – | – | – | – | – | – | – | –
2 | N[C@@H](CS)C(=O)O [cysteine] | – | 7.4 | 7.8 | 6.5 | 0.3 Log | 7.3 Log | 0.1 Log | 7.1 Log | 1.9 | 1.99 | –
3 | CSCC[C@H](N)C(=O)O [methionine, reference compound] | 11.2 | 7.5 | 8 | – | – | – | – | – | – | – | 13.1
